From PubChem BioAssay (NCI)
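Where inhibition never reached the appropriate level, the endpoint shown equals the highest concentration tested. Otherwise, values were interpolated linearly from a five-concentration, 48-hour dose response in 96-well plates. GI50 is the concentration that inhibits growth by half. TGI marks complete inhibition of growth.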

How the values were obtained:
Test in all cases: DTP human tumour cell line panel, 48 h
SK-MEL-2 melanoma = test system: SK-MEL-2 melanoma
MALME-3M melanoma = test system: MALME-3M melanoma
SR leukemia = test system: SR leukemia
OVCAR-3 ovarian = test system: OVCAR-3 ovarian
HCT-15 colon = test system: HCT-15 colon
786-0 renal = test system: 786-0 renal
BT-549 breast = test system: BT-549 breast
CCRF-CEM leukemia = test system: CCRF-CEM leukemia
EKVX NSCLC = test system: EKVX NSCLC
TK-10 renal = test system: TK-10 renal
COLO 205 colon = test system: COLO 205 colon
CAKI-1 renal = test system: CAKI-1 renal
HOP-62 NSCLC = test system: HOP-62 NSCLC
SNB-19 CNS = test system: SNB-19 CNS
A498 renal = test system: A498 renal
HCC-2998 colon = test system: HCC-2998 colon
HS 578T breast = test system: HS 578T breast
SW-620 colon = test system: SW-620 colon
U251 CNS = test system: U251 CNS
SK-MEL-5 melanoma = test system: SK-MEL-5 melanoma
KM12 colon = test system: KM12 colon
SNB-75 CNS = test system: SNB-75 CNS
IGROV1 ovarian = test system: IGROV1 ovarian
HT29 colon = test system: HT29 colon
K-562 leukemia = test system: K-562 leukemia
RXF 393 renal = test system: RXF 393 renal
PC-3 prostate = test system: PC-3 prostate
HCT-116 colon = test system: HCT-116 colon
DU-145 prostate = test system: DU-145 prostate

`C/C(=C\c1c[nH]c2ccccc12)[N+](=O)[O-]` was tested, and the GI50 (SK-MEL-2 melanoma) was 6.24 µM, the TGI (SK-MEL-2 melanoma) was 20.8 µM and the GI50 (MALME-3M melanoma) was 2.54 µM. It also gave a TGI (MALME-3M melanoma) of 7.85 µM, a GI50 (SR leukemia) of 1.15 µM and a TGI (SR leukemia) of 4.25 µM. It also gave a GI50 (OVCAR-3 ovarian) of 8.57 µM, a TGI (OVCAR-3 ovarian) of 24.8 µM and a GI50 (HCT-15 colon) of 2.48 µM. It also gave a TGI (HCT-15 colon) of 13.7 µM, a GI50 (786-0 renal) of 4.27 µM and a TGI (786-0 renal) of 15.5 µM. The GI50 (BT-549 breast) was 11 µM, the TGI (BT-549 breast) was 24 µM and the GI50 (CCRF-CEM leukemia) was 1.62 µM. For the same compound, the TGI (CCRF-CEM leukemia) was 4.2 µM, the GI50 (EKVX NSCLC) was 10.2 µM and the TGI (EKVX NSCLC) was 27.1 µM. For the same compound, the GI50 (TK-10 renal) was 10.8 µM, the TGI (TK-10 renal) was 24.5 µM and the GI50 (COLO 205 colon) was 5.06 µM. The TGI (COLO 205 colon) was 17.4 µM, the GI50 (CAKI-1 renal) was 5.67 µM and the TGI (CAKI-1 renal) was 18.9 µM. For the same compound, the GI50 (HOP-62 NSCLC) was 4.04 µM, the TGI (HOP-62 NSCLC) was 13.6 µM and the GI50 (SNB-19 CNS) was 5.82 µM. The TGI (SNB-19 CNS) was 20 µM, the GI50 (A498 renal) was 14.9 µM and the TGI (A498 renal) was 29.6 µM. The GI50 (HCC-2998 colon) was 10.5 µM, the TGI (HCC-2998 colon) was 23 µM and the GI50 (HS 578T breast) was 7.61 µM. It also gave a TGI (HS 578T breast) of 43.8 µM, a GI50 (SW-620 colon) of 5.78 µM and a TGI (SW-620 colon) of 26 µM. For the same compound, the GI50 (U251 CNS) was 2.14 µM, the TGI (U251 CNS) was 7.04 µM and the GI50 (SK-MEL-5 melanoma) was 5.8 µM. The TGI (SK-MEL-5 melanoma) was 19.2 µM, the GI50 (KM12 colon) was 3.98 µM and the TGI (KM12 colon) was 15.6 µM. It also gave a GI50 (SNB-75 CNS) of 1.89 µM, a TGI (SNB-75 CNS) of 6.93 µM and a GI50 (IGROV1 ovarian) of 5.43 µM. It also gave a TGI (IGROV1 ovarian) of 19.2 µM, a GI50 (HT29 colon) of 3.02 µM and a TGI (HT29 colon) of 12.9 µM. It also gave a GI50 (K-562 leukemia) of 4.03 µM, a TGI (K-562 leukemia) of 16.5 µM and a GI50 (RXF 393 renal) of 2.91 µM. The TGI (RXF 393 renal) was 11.5 µM, the GI50 (PC-3 prostate) was 4.07 µM and the TGI (PC-3 prostate) was 15.4 µM. For the same compound, the GI50 (HCT-116 colon) was 2.37 µM, the TGI (HCT-116 colon) was 8.08 µM and the GI50 (DU-145 prostate) was 3.73 µM.
